Assay results reported in EP1188765B1, “Medical Use of Mechanism-oriented inhibitors of dipeptidyl peptidase I” (Probiodrug AG, priority 1998, dated 2000).
“Also recorded” adds a separate entry of the source. Blank lines part the entries; values can stand above or below the compound they belong to.

Experiments:
[1] = biological target: T1, DP Ihum (Homo sapiens, UniProt P53634); assay: Inactivation of DP I from human kidney (second-order rate constants); assay type: biochemical
T1 construct: DP I (humane Niere); from tissue; host or cells: human kidney
T1 sequence (P53634 231-394 limits assumed): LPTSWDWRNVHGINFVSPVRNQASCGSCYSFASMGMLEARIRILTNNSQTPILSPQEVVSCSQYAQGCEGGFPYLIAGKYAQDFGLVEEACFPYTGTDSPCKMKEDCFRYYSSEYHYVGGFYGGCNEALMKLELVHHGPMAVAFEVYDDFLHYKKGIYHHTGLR
T1 sequence (P53634 25-143 limits assumed): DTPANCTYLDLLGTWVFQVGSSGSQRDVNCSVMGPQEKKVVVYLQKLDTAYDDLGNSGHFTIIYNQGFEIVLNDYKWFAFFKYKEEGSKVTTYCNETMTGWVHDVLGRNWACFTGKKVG
T1 sequence (P53634 395-463 limits assumed): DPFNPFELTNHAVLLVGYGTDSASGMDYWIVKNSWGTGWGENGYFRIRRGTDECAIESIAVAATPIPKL

[2] = biological target: T2, DP Ibovine (Bos taurus, UniProt Q3ZCJ8); assay: Inactivation of DP I from bovine kidney (second-order rate constants); assay type: biochemical, Rinder
T2 construct: Inaktivierung der DP I aus Rinder- bzw. humaner Niere mittels H-Gly-Phe-NHO-Bz; from tissue; host or cells: bovine kidney
T2 sequence (Q3ZCJ8 231-394 limits assumed): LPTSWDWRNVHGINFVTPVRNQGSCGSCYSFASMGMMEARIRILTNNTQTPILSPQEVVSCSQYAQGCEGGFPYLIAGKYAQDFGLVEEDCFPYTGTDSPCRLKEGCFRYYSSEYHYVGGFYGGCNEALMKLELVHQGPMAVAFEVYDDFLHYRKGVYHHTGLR
T2 sequence (Q3ZCJ8 25-143 limits assumed): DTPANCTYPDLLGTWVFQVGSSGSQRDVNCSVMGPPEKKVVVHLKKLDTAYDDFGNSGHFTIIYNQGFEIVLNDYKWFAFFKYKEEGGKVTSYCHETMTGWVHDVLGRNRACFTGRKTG
T2 sequence (Q3ZCJ8 395-463 limits assumed): as the sequence (P53634 395-463 limits assumed) above, with S22A, M26L, G38S, V61L counted along it

[3] = test system: DP I; conditions: literature (Nikawa et al., 1992); cited from earlier work
[4] = biological target: T3, Cathepsin B (hum. Leber) (Homo sapiens, UniProt P07858); assay: Inactivation of cathepsin B (second-order rate constants); assay type: biochemical; conditions: Table 3
T3 construct: Cathepsin B (hum. Leber); from tissue; host or cells: human liver

[5] = biological target: DP I (Homo sapiens, UniProt P53634); assay: Protection of glucagon from degradation by DP I, MALDI-TOF mass spectra; assay type: biochemical; conditions: 0.14 mM Glukagon, 40 mM TRIS/HCl pH 7,6; enzyme 15 nM; inhibitor 300 nM, 5 min preincubation with DP I
Chain of DP I (Homo sapiens, UniProt P53634) (P53634 25-463): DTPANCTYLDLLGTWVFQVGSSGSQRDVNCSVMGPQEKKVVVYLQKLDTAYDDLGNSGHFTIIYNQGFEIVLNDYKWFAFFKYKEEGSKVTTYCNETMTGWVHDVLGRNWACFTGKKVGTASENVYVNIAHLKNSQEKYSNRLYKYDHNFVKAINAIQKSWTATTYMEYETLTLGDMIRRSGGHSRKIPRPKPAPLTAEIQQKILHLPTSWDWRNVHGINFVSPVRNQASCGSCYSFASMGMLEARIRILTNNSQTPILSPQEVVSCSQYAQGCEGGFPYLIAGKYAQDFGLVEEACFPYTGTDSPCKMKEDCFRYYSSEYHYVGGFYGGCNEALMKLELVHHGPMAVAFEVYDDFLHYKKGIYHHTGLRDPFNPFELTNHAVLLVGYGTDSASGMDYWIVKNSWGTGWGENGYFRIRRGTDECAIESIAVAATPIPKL
Source text: Schutz des Abbaus des Peptidhormons Glukagon durch Vorinkubation von DP I mit H-Gly-Phe-NHO-Bz
Abbildung 1: MALDI-TOF-Massenspektren von Reaktionslösungen, die Glukagon und DP I enthalten.

[6] = biological target: T4, Cathepsin L (hum. Leber) (Homo sapiens, UniProt P07711); assay: Inactivation of cathepsin L (second-order rate constants); assay type: biochemical; conditions: Table 3
T4 construct: Cathepsin L (hum. Leber); from tissue; host or cells: human liver
T4 sequence (P07711 114-333): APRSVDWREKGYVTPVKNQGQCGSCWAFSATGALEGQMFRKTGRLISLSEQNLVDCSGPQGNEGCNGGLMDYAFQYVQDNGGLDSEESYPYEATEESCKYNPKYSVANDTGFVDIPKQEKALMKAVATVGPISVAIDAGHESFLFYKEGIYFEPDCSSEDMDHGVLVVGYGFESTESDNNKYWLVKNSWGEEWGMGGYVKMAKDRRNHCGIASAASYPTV

[7] = test system: "DCE" (Dynorphin Converting Enzyme); conditions: Demuth et al. 1991; cited from earlier work
[8] = DP Ihum, inhibitor concentration 1e^-4 M, Table 2
[9] = DP Ibovine, inhibitor concentration 1e^-4 M, Table 2
[10] = DP Ihum, inhibitor concentration 2e^-5 M, Table 2
[11] = DP Ibovine, inhibitor concentration 2e^-5 M, Table 2

kinact/Ki [1, 8]: keine Hemmung (1e^-4)
kinact/Ki [2, 9]: keine Hemmung (1e^-4)
Compound: C[C@H](NC(=O)OC(C)(C)C)C(=O)N[C@@H](C)C(=O)N[C@@H](C)C(=O)NOC(=O)c1ccccc1 [Boc-Ala-Ala-Ala-NHO-Bz]

kinact/Ki [1, 8]: keine Hemmung (1e^-4)
kinact/Ki [2, 9]: keine Hemmung (1e^-4)
Compound: C[C@H](NC(=O)OC(C)(C)C)C(=O)N[C@@H](C)C(=O)NOC(=O)c1ccccc1 [Boc-Ala-Ala-NHO-Bz]

kinact/Ki [1, 8]: keine Hemmung (1e^-4)
kinact/Ki [2, 9]: keine Hemmung (1e^-4)
Compound: C[C@H](NC(=O)OC(C)(C)C)C(=O)N1CCC[C@H]1C(=O)N[C@@H](Cc1ccccc1)C(=O)NOC(=O)c1ccccc1 [Boc-Ala-Pro-Phe-NHO-Bz]

Compound: CC(C)C[C@H](NC(=O)[C@H]1O[C@@H]1C(=O)O)C(=O)NCCCCN=C(N)N [E-64]
Inhibierung der DP I [3]: nur schwach inhibiert; also recorded: inert

kinact/KI [4]: 87 M⁻¹ s⁻¹
kinact/Ki ([1]; DP I (humane Niere), Table 3): 34979 s^-1M^-1
kinact/KI ([1]; DP I from human kidney, Table 1): 35000 M⁻¹ s⁻¹
Inhibierung des Glukagonabbaus durch DP I [5]: Inhibierung des Glukagonabbaus
kinact/KI [6]: 37 M⁻¹ s⁻¹
kinact/KI ([2]; DP I from bovine kidney, Table 1): 36700 M⁻¹ s⁻¹
Compound: NCC(=O)N[C@@H](Cc1ccccc1)C(=O)NOC(=O)c1ccccc1 [H-Gly-Phe-NHO-Bz, N-(H-Gly-Phe-),O-Benzoyl Hydroxylamin]

kinact/KI ([1]; DP Ihum, inhibitor concentration 1e^-6 M, Table 2): 3620 M⁻¹ s⁻¹
kinact/KI ([2]; DP Ibovine, inhibitor concentration 1e^-6 M, Table 2): 3950 M⁻¹ s⁻¹
Compound: N[C@@H](Cc1ccc(O)cc1)C(=O)NCC(=O)NOC(=O)c1ccccc1 [H-Tyr-Gly-NHO-Bz]
Inhibierung des Enzyms DCE [7]: nur schwach und reversibel inhibiert

Compound: CC(=O)N[C@@H](CC(C)C)C(=O)N[C@@H](CC(C)C)C(=O)N[C@H](C=O)CCCNC(=N)N [Leupeptin]
Inhibierung der DP I [3]: nur schwach inhibiert

kinact/Ki [1, 10]: keine Hemmung (2e^-5)
kinact/Ki [2, 11]: keine Hemmung (2e^-5)
Compound: Cc1ccc(C(=O)ONC(=O)[C@H](Cc2ccccc2)NC(=O)CNC(=O)OCc2ccccc2)cc1 [Z-Gly-Phe-NHO-Bz-CH3]

kinact/KI [4]: 418 M⁻¹ s⁻¹
kinact/Ki ([1]; DP I (humane Niere), Table 3): Keine Hemmung
kinact/KI [6]: 223 M⁻¹ s⁻¹
Compound: O=C(CNC(=O)OCc1ccccc1)N[C@@H](Cc1ccccc1)C(=O)NOC(=O)c1ccccc1 [Z-Gly-Phe-NHO-Bz]

kinact/Ki [1, 10]: 208 M⁻¹ s⁻¹
kinact/Ki [2, 11]: 149 M⁻¹ s⁻¹
Compound: H-Ile-Pro-NHO-Nb
